Test results from patent US11925696B2, “Carbonic anhydrase IX targeting agents and methods” (priority 2016, dated 2024).
pKd: −log10 of the molar value. Read-outs that look alike come from different tables or passages of the source.

Key:
HT-29 tumor xenografts = assay type: in vivo, mice
Protocol: Mice bearing HT-29 tumors were injected via tail vein with 4 nmol Hypoxyfluor alone or in combination with 100-fold excess CA IX inhibitor. Fluorescence images were acquired 4 hours post injection.
Tissues and organs were excised after whole animal imaging and the fluorescence images of the isolated tissues were acquired.
Mice bearing HT-29 tumors were injected via tail vein with the indicated concentrations of Hypoxyfluor and fluorescence images were acquired 4 hours post injection.
Using a 25-gauge needle, six-week-old female nu/nu mice were inoculated subcutaneously in their shoulders with HT-29 cells in RPMI1640 medium (5.0×10^6 cells per mouse). Tumor growth was measured in 2 perpendicular directions every 2 days with a caliper. Tumor volumes were calculated using the formula 0.5×L×W^2, where L is the measurement of the longest axis and W is the measurement of the axis perpendicular to L. Tumor bearing mice were treated via tail vein injection with different concentrations of Hypoxyfluor in the presence or absence of 100-fold CA IX ligand to block all unoccupied CA IX binding sites. Mice were imaged 4 hours post injection using a Caliper IVIS Lumina II Imaging station coupled to an ISOON5160 Andor Nikon camera equipped with Living Image Software Version 4.0. Image acquisition settings were as follows: lamp level, high; excitation, […]; emission, ICG; epi illumination; binning (M) 4; FOV, 12.5; f-stop, 4; acquisition time, 1 s.

HT-29 cells [1] = test: Fluorescent/confocal microscopy of Hypoxyfluor and CA IX-Rhodamine on HT-29 cells; assay type: cell-based, human; conditions: 1 hour incubation, unbound conjugate washed off
Protocol: HT-29 cells (10^5) were seeded into chambered coverglass plates and allowed to grow to confluence over 48-72 hr. […] After incubation for 1 hour at 37° C., cells were rinsed three times with 1 mL of incubation solution to remove unbound fluorescence and 0.5 mL of fresh medium was added to the wells.
HT-29 cells that naturally express CA IX were used to determine cancer cell uptake and binding affinity of the newly synthesized conjugate. […] Fluorescence was quantitated as described above to determine binding affinity.

HT-29 cells [2] = test: Binding of Hypoxyfluor to HT-29 cells (cell associated fluorescence); set-up: species or system human
Protocol: After washing, the remaining fluorescence was quantitated by fluorescence spectroscopy. Error bars represent standard deviation.
HT-29 cells (10^5) were seeded into 24-well BD purecoat amine plates and allowed to grow to confluence over 48-72 hr. Spent medium was replaced with 0.5 mL of fresh medium containing 0.5% bovine serum albumin, and various concentrations of the dye conjugate alone or the dye conjugate plus 100-fold excess CA IX ligand were added. After incubation for 1 hour at 37° C., cells were rinsed with incubation solution (2×1.0 mL) to remove unbound fluorescence and dissolved in 0.5 mL of 1% aqueous sodium dodecyl sulfate. Cell associated fluorescence was then measured using an excitation of 745 nm and emission of 790 nm. All experiments were performed in triplicate. The dissociation constant (KD) was calculated from a plot of cell bound fluorescence (RFU) versus the concentration of fluorescent conjugate added using the program, Graphpad Prism, and assuming a noncooperative single site binding equilibrium.

HT-29 xenografts = conditions: mouse, in vivo
Protocol: Additional mice were simultaneously injected with 100 nmol of unlabeled L2 or L3 ligand. Major tissues/organs were removed and the amount of radioactivity was determined. The percentage of injected dose/g of tissue was calculated and plotted. Error bars represent standard deviation.
Five-week-old male nu/nu mice were inoculated subcutaneously with HT-29 cells (5.0×10^6/mouse) on their shoulders. Growth of the tumors was measured in two perpendicular directions every 2 days using a caliper (body weights were monitored on the same schedule), and the volumes of the tumors were calculated as 0.5×L×W^2 (L=longest axis and W=axis perpendicular to L in millimeters). […] At various times, animals were sacrificed by CO2 asphyxiation. Images were acquired by shielding the kidneys via a Kodak Imaging Station (In-Vivo FX, Eastman Kodak Company) in combination with CCD camera and Kodak molecular imaging software (version 4.0). Radioimages: illumination source=radio isotope, acquisition time=3 min, f-stop=4, focal plane=5, FOV=160, binning=4. […] Radioactivity of preweighed tissues and ^99mTc-bound conjugates (10 nmol, 150 μCi) in saline (100 μL) was counted in a γ-counter. CPM values were decay corrected, and results were calculated as % injected dose (ID)/gram of wet tissue.

HT-29 cells [3] = test: 99mTc conjugates binding to HT-29 cells (apparent KD, gamma counting); set-up: species or system human
Protocol: HT-29 cells (150,000 cells/well in 500 μL) were seeded into 24-well Falcon plates and allowed to form monolayers over 48 h. […] After incubating for 1 h at 37° C., cells were rinsed twice with 1 mL of medium and 1 mL of tris buffer. After dissolving in 0.5 mL of 0.25 M NaOH (aq), cells were transferred into individual γ-counter tubes and radioactivity was counted using a γ-counter (Packard, Packard Instrument Company). Apparent KD was calculated by plotting bound radioactivity versus the concentration of radiotracer using GraphPad Prism 4.

[4] = 4 nmol tail vein, 4 hours post injection

Structure (SMILES): COC(=O)N(CCN(CC(=O)NCCOCCOCCOCCOCCOCCOCCOCCOCCOCCOCCOCCOCCC(=O)CCCc1ccc(OC2=C(/C=C/C3=[N+](CCCCS(=O)(=O)O)c4ccc(S(=O)(=O)O)cc4C3(C)C)CCC/C2=C\C=C2\N(CCCCS(=O)(=O)O)c3ccc(S(=O)(=O)O)cc3C2(C)C)cc1)CC(=O)Nc1ccc(S(N)(=O)=O)cc1)CC(=O)Nc1ccc(S(N)(=O)=O)cc1 [Hypoxyfluor]
- whole animal fluorescence (HT-29 tumor xenografts; [4]): predominately detected in the tumor
- whole animal fluorescence with 400 nmol CA IX ligand (HT-29 tumor xenografts; [4]): no fluorescent signal could be detected
- whole body fluorescence, dose escalation (HT-29 tumor xenografts; 40 nmol/mouse): nontumor associated fluorescence became apparent
- whole body fluorescence, dose escalation (HT-29 tumor xenografts; low and intermediate doses (3 and 13 nmol)): fluorescence was restricted to the tumor
- location of binding on cultured HT-29 cells (HT-29 cells [1]): binding was seen on both the cell surface and internal endosomes
- pKd (HT-29 cells [2]; 1 hour at 37° C., excitation 745 nm, emission 790 nm, triplicate, read-out: apparent dissociation constant): 7.35
- binding after pre-incubation with 100-fold excess of the unconjugated ligand (HT-29 cells [2]; HT-29 cells): binding was competed

Structure (SMILES): N[C@H](CNC(=O)CCOCCOCCOCCOCCOCCOCCOCCOCCOCCOCCOCCOCCNC(=O)CN(CCN(CC(=O)O)CC(=O)Nc1ccc(S(N)(=O)=O)cc1)CC(=O)Nc1ccc(S(N)(=O)=O)cc1)C(=O)N[C@@H](CC(=O)O)C(=O)NC[C@H](CS)C(=O)O [L2-PEG12-EC20]
- overall percentage of the injected dose retained in the tissues (HT-29 xenografts): somewhat lower overall percentage of the injected dose being retained in the tissues
- pKd (HT-29 cells [3]; 99mTc-bound conjugate, 1 h at 37° C., read-out: Binding Affinity (apparent KD)): 7.27
- decrease of binding by addition of the PEG12-EC20 (HT-29 cells [3]; binding affinity of conjugate versus reported Ki of original ligand): ~7 fold
